Experimental data taken from US12576166B2, “Contrast agents for detection of enzyme activities based on melanin synthesis” (BOARD OF REGENTS, THE UNIVERSITY OF TEXAS SYSTEM, priority 2020, dated 2026).

Target: cathepsin B (Homo sapiens, UniProt P07858)
Experiment: Incubation of Agent 6 with cathepsin B; product read by colour, MSOT and absorbance
Assay type: biochemical
Settings: pH 6.8, 37° C., overnight
Method: We incubated 2.22 mg/mL ([…], 0.1 mL) of Agent 6 with 2 units of cathepsin B at pH 6.8 and at 37° C. overnight. Although cathepsin B is typically considered to be an endoprotease, this enzyme can work as an exoprotease at lower pH relative to physiological pH 7.4. Also, the extracellular tumor microenvironment is known to be acidic, so that pH 6.8 is a better representation of tumor conditions.
Other samples of were prepared at 1.66, 1.11, 0.84, and 0.55 mg/mL. These solutions were inserted into a customized phantom for a multi spectral optoacoustic imaging instrument (MSOT; also known as photoacoustic imaging) (InVision instrument, iThera Medical). FIG. 12A-FIG. 12D present MSOT or absorbance spectra data for the various concentrations.
The phantoms were imaged at 700-900 nm absorbance wavelengths in 2 nm steps. (FIG. 12A). The samples were also analyzed with a spectrofluorometer with absorbance through the same wavelength range (FIG. 12B), which matched the spectral profile and relative signal intensities of the MSOT spectra. The spectra were broad and featureless, which is expected for a melanin-based product. The signal to noise ratio (SNR) scaled with the concentration of the reactant, providing validation that the MSOT and absorbance signals were derived from the product and was not an artifact of the solution or imaging instrument (FIG. 12C, FIG. 12D).

- colour of the resulting solution (indicating melanin produced after cleavage by cathepsin B) (2.22 mg/mL Agent 6, 2 units of cathepsin B): light gray color
Compound: CC(=O)NC(Cc1ccccc1)C(=O)NC(CCCCN)C(=O)Nc1ccc(COc2cc3cc[nH]c3cc2O)cc1 (centres unmarked) [Agent 6]
- cleavage by cathepsin B to a melanin-based product detectable by MSOT (MSOT 700-900 nm, preliminary results): cleaved by cathepsin B to create a melanin-based product that can be detected by MSOT
